Test results from US20230352149A1, “Single-cell morphology analysis for disease profiling and drug discovery” (Universität Heidelberg, priority 2020, published 2023).

Tested on: cardiomyocytes
Assay: live cell imaging of changes in cell areas after stimulation (FIG. 17A)
Assay type: cell-based
Conditions: for changes in cell areas vs Ctrl: after 9 h, Ctrl vs PE/Ins; for early dynamics of cell area: early dynamics (<2.5 h), compared with ctrl (no increase)
Protocol: Image acquisition can be performed with a microscope. Preferably, this is performed at the end of the experiment. In other embodiments, the image acquisition is performed during the course of the experiment to analyze the cell response over time (video, live cell imaging).
In order to perform time series analysis, imaging of cells can happen multiple times with live cell fluorescent dyes. This allows visualizing the dynamics of cell morphological changes over time. Experiments have shown that certain dynamics leads to a characteristic set of meta-features associated with certain diagnoses, prognoses, and/or individualized therapy.

Row | Compound | changes in cell areas vs Ctrl | early dynamics of cell area
1 | insulin | differences following stimulation can be observed | less steep increase
2 | CNC[C@H](O)c1cccc(O)c1 [PE, phenylephrine] | differences following stimulation can be observed | steep increase
